Assay results reported in patent US7172865B2, “Rapid and sensitive assay for the detection and quantification of coregulators of nucleic acid binding factors” (Saint Louis University, priority 2001, dated 2007).

Tests used:
[1] = target: T1, TrpR (Escherichia coli, UniProt P0A881); assay: tryptophan biosensor, fluorescence intensity; assay type: binding; details: 250 nM and 300 nM components, 2 hrs
Experimental: Increasing concentrations of tryptophan were added to a mixture containing 250 nM fluorescein labeled TrpR-specific first nucleic acid component and 300 nM dabcyl-labeled Trp-specific second nucleic acid component.

[2] = target: T1, TrpR; assay: tryptophan biosensor, fluorescence polarization; assay type: binding; details: 4 nM fluorescein-labeled 25 bp duplex
Experimental: Increasing concentrations of tryptophan were added to a mixture containing 4 nM fluorescein-labeled 25 bp DNA duplex containing consensus TrpR binding sites.
To illustrate that a different detection methodology for measuring the formation of nucleic acid-protein complexes could be accommodated to the biosensor design shown in FIG. 20, a biosensor for tryptophan was prepared wherein only one nucleic acid component was attached to a detectable label. According to this particular embodiment of the invention, fluorescence polarization of fluorochrome-labeled DNA component containing a TrpR cognate binding site was used to measure tryptophan-induced formation of a TrpR-nucleic acid complex (FIG. 23).

[3] = target: LacR protein (Escherichia coli, UniProt P03023); assay: IPTG biosensor; assay type: binding; details: 50 nM and 60 nM components, 2 hrs
Experimental: FIG. 24 describes a biosensor for detecting IPTG. Increasing concentrations of IPTG were added to a mixture containing 50 nM fluorescein-labeled LacR-specific first nucleic acid component and 60 nM dabcyl-labeled Lac-specific second nucleic acid component.
FIG. 24 illustrates a biosensor design using a nucleic acid binding factor for which the coregulator reduced its affinity for a specific nucleic acid element. In this case, the coregulator will induce the dissociation of the protein-nucleic acid complex and its detection could be accomplished by coregulator-dependent disappearance of protein-nucleic acid complex. […] In the absence of IPTG (a coregulator for LacR) the LacR protein bound to its labeled cognate nucleic acid element resulting in quenching of the fluorescence signal.

[4] = system: LacR binding site split between LAC1/LAC4 and LAC2/LAC3; assay: detection of Lac repressor protein by fluorescence quenching
Excerpt: The LAC1 oligonucleotide (SEQ ID NO:12) was hybridized with the LAC4 oligonucleotide (SEQ ID NO:15) to generate the LAC1/LAC4 construct and the LAC2 oligonucleotide (SEQ ID NO:13) was hybridized with the LAC3 oligonucleotide (SEQ ID NO:14) to generate the LAC2/LAC3 construct.

[5] = target: CAP protein (Escherichia coli, UniProt P0ACJ8); details: cited from earlier work
[6] = system: TrpR binding site split between TRP1/TRP4 and TRP2/TRP3; details: 250 nM TRP1/TRP4 and 300 nM TRP2/TRP3, 4 mM tryptophan
Experimental: The TRP1 oligonucleotide (SEQ ID NO:16) was hybridized with the TRP4 oligonucleotide (SEQ ID NO:19) to generate the TRP1/TRP4 construct and the TRP2 oligonucleotide (SEQ ID NO:17) was hybridized with the TRP3 oligonucleotide (SEQ ID NO:18) to generate the TRP2/TRP3 construct. For the hybridization, the appropriate oligonucleotides were mixed at 10 μM concentration in 100 μl of 50 mM Tris/HCl (pH 8.0), 100 mM NaCl, 1 mM EDTA, heated for 1 min at 95° C. and then cooled to 25° C. for 1 hr. All subsequent fluorescence measurements were performed at 15° C. in 10 mM potassium phosphate (pH 7.6), 50 mM NaCl, 0.1 mM EDTA, 4mM tryptophan, 10% glycerol, 0.01% sodium azide and 1.0 mg/ml BSA. […] The duplexes contain a TrpR binding site (underlined sequence) split between each of the two double stranded constructs.
The fluorescence spectra of 250 nM TRP1/TRP4 and 300 nM TRP2/TRP3 were recorded in the absence of TrpR (FIG. 16A, curve 1) and in the presence of varying amounts of TrpR in a range from 0–800 nM (FIG. 16A, curves 2–5). ).

Sequence of CAP protein (P0ACJ8 2-210): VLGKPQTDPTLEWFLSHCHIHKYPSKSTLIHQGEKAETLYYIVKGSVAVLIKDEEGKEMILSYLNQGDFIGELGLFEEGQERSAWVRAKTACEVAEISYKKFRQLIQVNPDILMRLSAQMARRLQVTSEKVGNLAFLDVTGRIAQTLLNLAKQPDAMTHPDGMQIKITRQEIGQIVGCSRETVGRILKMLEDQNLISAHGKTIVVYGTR

## N[C@@H](Cc1c[nH]c2ccccc12)C(=O)O [tryptophan]
[1]
  fluorescence signal response to tryptophan: large fluorescence signal change
[2]
  fluorescence polarization response to tryptophan: change of fluorescence polarization signal proportional to tryptophan concentration

## CC(C)S[C@@H]1O[C@H](CO)[C@H](O)[C@H](O)[C@H]1O [IPTG, reference compound]
[3]
  fluorescence signal response to IPTG: IPTG-dependent increase in fluorescence signal
[4]; 5 mM IPTG
  effect on LacR nucleic acid binding activity: reduces its nucleic acid binding activity

## Nc1nc2c(ncn2[C@@H]2O[C@@H]3COP(=O)(O)O[C@H]3[C@H]2O)c(=O)[nH]1 [cGMP]
[5]; CAP alone
  affinity of CAP for the cyclic nucleotide: micromolar affinity
[5]
  change of affinity of CAP for the nucleotide in the presence of DNA containing a CAP binding site: remains unchanged

B1: LacR: Lac repressor protein, nucleic acid binding reduced by IPTG (protein, UniProt P03023 1-360, looked up)
Lactose operon repressor: MKPVTLYDVAEYAGVSYQTVSRVVNQASHVSAKTREKVEAAMAELNYIPNRVAQQLAGKQSLLIGVATSSLALHAPSQIVAAIKSRADQLGASVVVSMVERSGVEACKAAVHNLLAQRVSGLIINYPLDDQDAIAVEAACTNVPALFLDVSDQTPINSIIFSHEDGTRLGVEHLVALGHQQIALLAGPLSSVSARLRLAGWHKYLTRNQIQPIAEREGDWSAMSGFQQTMQMLNEGIVPTAMLVANDQMALGAMRAITESGLRVGADISVVGYDDTEDSSCYIPPLTTIKQDFRLLGQTSVDRLLQLSQGQAVKGNQLLPVSLVKRKTTLAPNTQTASPRALADSLMQLARQVSRLESGQ
[4]; 50 nM LAC1/LAC4 plus LAC2/LAC3
  protein concentration at saturation of quenching: approximately 150 nM
[6]
  protein concentration at saturation of quenching: approximately 150 nM
